From patent US20090136553A1, “TRIGGERABLY DISSOLVABLE HOLLOW FIBERS FOR CONTROLLED DELIVERY” (priority 2007, published 2009)

Experiments:
[1] = test system: surgically created aneurysm; conditions: bFGF collagen gel in fiber lumen, three weeks; cited from earlier work
[2] = test system: endothelial cell migration and vessel formation in Matrigel plug; assay: In vivo murine Matrigel plug assay; parameters: species or system C57BL/6 mice; conditions: 10 μL daily of 100 μg/mL VEGF or 1800 μM S1P via fiber, 7 days post-implantation
Experimental: In vivo Assay. Growth factor reduced Matrigel™ (500 μL) was injected into the subcutaneous space on the dorsal side of C57BL/6 mice on both the left and right sides. A 12 G needle was used to thread cellulose hollow fibers through the skin and Matrigel™ plugs. Hollow fibers were fixed in place using tissue glue and an Elizabethan collar was used to prevent mice from extracting the hollow fiber. On the day of implantation and every day for the next 6 days, hollow fibers on the left side were injected with sterile saline and hollow fibers on the right side were injected with 10 μL of 100 μg/mL VEGF or 1800 μM S1P (see Table 8 for schedule).
Seven days post-implantation, implants were extracted, fixed and analyzed for endothelial cell migration and vessel formation. […] CD31 staining of Matrigel™ plug explants confirms that cells that have migrated into the Matrigel™ plugs are in fact endothelial cells (FIGS. 21E-H). Metamorph® was used to measure the % area of each image that consisted of endothelial cell staining in order to quantify endothelial cell migration.

| Substance | fibrous tissue formation in aneurysm [1] | blood filled vessels (H&E) [2] |
| --- | --- | --- |
| basic fibroblast growth factor [bFGF] | remained functional as it was able to guide the aneurysm to create fibrous tissue |  |
| vascular endothelial growth factor [VEGF] |  | blood filled vessels |
